How the values were obtained:
Type in all cases: biochemical
AKT1 = AKT1 (Homo sapiens, UniProt P31749); experiment: ADP-Glo in vitro kinase assay; relative activity left at […]
MET = MET (Homo sapiens, UniProt P08581); experiment: ADP-Glo in vitro kinase assay
EGFR = EGFR (Homo sapiens, UniProt P00533); experiment: ADP-Glo in vitro kinase assay
Chain of EGFR (P00533 25-1210): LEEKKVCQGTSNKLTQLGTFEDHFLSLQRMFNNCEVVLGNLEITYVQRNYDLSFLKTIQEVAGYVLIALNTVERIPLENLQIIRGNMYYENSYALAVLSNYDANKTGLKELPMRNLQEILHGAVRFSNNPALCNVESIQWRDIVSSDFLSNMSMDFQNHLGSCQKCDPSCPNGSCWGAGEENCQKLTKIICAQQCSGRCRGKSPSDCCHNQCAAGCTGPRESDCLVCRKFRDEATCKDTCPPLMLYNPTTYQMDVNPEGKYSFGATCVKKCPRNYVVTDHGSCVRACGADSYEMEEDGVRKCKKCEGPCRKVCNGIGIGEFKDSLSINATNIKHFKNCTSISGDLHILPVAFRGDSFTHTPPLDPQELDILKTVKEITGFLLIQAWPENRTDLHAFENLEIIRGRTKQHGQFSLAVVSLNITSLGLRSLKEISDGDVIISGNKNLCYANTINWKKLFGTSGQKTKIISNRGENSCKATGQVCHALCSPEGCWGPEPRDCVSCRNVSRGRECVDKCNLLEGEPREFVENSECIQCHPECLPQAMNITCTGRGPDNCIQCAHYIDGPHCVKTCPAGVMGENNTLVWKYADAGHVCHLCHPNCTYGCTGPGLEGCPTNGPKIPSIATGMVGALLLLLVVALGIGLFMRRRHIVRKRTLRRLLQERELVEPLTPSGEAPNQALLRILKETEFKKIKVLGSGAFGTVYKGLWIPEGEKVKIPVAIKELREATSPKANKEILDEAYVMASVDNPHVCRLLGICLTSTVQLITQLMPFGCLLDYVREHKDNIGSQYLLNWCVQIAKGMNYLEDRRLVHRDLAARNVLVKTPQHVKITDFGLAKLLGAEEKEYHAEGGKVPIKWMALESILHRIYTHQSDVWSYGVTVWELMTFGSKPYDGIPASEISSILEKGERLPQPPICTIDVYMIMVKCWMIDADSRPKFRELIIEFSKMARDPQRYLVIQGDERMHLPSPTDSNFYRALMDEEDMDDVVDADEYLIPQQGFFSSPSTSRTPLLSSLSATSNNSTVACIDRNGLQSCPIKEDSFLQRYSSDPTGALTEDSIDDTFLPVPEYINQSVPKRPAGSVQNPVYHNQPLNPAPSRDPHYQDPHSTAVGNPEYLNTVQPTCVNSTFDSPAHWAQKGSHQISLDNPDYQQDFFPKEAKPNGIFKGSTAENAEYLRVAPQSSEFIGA

Chain of AKT1 (P31749 whole entry): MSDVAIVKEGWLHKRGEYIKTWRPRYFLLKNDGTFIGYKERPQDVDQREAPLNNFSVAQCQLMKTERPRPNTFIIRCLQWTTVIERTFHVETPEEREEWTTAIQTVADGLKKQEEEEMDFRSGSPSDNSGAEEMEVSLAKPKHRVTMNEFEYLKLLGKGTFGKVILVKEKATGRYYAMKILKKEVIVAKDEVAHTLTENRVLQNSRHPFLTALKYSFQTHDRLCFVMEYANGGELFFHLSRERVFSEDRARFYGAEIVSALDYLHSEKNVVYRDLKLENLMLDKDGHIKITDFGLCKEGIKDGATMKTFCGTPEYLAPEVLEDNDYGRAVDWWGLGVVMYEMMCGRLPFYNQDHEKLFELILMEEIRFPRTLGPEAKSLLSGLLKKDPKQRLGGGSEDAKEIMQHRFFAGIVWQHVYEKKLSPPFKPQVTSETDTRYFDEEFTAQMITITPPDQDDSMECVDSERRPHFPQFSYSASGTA
Chain of MET (P08581 25-307): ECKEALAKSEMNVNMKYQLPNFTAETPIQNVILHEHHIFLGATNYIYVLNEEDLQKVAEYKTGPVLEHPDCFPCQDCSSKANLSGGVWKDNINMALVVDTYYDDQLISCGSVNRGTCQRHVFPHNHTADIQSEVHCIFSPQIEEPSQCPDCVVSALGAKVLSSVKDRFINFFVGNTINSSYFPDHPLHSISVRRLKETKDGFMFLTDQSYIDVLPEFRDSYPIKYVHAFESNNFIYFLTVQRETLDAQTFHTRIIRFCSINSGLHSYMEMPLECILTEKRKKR
Chain of MET (P08581 308-1390): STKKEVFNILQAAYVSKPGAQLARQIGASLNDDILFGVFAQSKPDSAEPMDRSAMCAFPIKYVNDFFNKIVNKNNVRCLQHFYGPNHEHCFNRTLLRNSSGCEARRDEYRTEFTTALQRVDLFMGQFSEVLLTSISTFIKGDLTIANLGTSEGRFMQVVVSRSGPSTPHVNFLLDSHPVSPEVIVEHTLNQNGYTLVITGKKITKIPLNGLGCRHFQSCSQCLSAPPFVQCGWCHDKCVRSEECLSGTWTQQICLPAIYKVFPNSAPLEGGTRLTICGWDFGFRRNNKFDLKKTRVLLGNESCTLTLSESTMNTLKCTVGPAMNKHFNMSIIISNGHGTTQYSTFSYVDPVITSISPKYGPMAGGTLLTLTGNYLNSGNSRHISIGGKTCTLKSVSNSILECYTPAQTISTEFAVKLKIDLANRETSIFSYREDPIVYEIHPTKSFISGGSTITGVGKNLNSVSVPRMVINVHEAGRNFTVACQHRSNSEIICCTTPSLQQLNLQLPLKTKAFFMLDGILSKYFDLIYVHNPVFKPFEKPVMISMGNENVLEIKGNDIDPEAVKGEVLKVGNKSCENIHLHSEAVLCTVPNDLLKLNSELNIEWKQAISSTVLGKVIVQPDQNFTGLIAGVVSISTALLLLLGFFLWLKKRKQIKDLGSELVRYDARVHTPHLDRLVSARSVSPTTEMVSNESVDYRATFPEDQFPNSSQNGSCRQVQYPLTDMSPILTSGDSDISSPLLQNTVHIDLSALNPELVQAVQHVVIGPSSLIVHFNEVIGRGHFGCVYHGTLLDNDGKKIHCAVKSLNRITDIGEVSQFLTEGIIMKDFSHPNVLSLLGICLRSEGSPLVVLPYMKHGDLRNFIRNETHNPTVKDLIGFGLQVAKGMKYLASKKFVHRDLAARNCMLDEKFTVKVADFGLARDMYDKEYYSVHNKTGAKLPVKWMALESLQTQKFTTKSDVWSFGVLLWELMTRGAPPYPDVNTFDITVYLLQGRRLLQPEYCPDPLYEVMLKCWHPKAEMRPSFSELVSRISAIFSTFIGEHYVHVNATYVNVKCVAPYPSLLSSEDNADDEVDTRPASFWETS

Compound | activity at 8 µM (AKT1) [%] | IC50 (MET) [µM] | IC50 (EGFR) [µM]
CC(=O)O[C@H]1CC[C@]2(C)C3=CC[C@]4(C)[C@H]5[C@H](O)C[C@@H](C(C)C)[C@]5(C)CC[C@@]4(C)[C@@H]3[C@@H](O)C[C@H]2C1(C)C [ARu-B, 3-O-acetylrubiarbonol B] | 58 | 1.7 | 3
CC(C)[C@@H]1C[C@@H](O)[C@H]2[C@@]1(C)CC[C@@]1(C)[C@H]3C(=CC[C@]21C)[C@@]1(C)CC[C@H](O)C(C)(C)[C@@H]1C[C@@H]3O [Ru-B, rubiarbonol B] | 67.1 | 4.2 | 7.6
